This experiment deals with human F508del-CFTR (Homo sapiens, UniProt P13569, DEL508-508). Description: F508del-CFTR cell surface expression (corrector activity), DiscoveRx ß-galactosidase complementation chemiluminescence assay in recombinant U2OS cell line.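 For all read-outs here: U2OS cells co-expressing ProLink-tagged F508del-CFTR and a membrane-anchored enzyme acceptor, where more surface CFTR restores β-galactosidase activity measured by chemiluminescence.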 The settings on record: for EC50: EC50, F508del-CFTR cell surface expression, U2OS cells, 16h compound incubation, geomean values; for Emax: U2OS, in relation to Emax of corrector lumacaftor (=100%), arithmetic mean values.

SMILES strings stand for the structures.

human F508del-CFTR, sequence (P13569 with tags, fused parts or gaps DEL508-508): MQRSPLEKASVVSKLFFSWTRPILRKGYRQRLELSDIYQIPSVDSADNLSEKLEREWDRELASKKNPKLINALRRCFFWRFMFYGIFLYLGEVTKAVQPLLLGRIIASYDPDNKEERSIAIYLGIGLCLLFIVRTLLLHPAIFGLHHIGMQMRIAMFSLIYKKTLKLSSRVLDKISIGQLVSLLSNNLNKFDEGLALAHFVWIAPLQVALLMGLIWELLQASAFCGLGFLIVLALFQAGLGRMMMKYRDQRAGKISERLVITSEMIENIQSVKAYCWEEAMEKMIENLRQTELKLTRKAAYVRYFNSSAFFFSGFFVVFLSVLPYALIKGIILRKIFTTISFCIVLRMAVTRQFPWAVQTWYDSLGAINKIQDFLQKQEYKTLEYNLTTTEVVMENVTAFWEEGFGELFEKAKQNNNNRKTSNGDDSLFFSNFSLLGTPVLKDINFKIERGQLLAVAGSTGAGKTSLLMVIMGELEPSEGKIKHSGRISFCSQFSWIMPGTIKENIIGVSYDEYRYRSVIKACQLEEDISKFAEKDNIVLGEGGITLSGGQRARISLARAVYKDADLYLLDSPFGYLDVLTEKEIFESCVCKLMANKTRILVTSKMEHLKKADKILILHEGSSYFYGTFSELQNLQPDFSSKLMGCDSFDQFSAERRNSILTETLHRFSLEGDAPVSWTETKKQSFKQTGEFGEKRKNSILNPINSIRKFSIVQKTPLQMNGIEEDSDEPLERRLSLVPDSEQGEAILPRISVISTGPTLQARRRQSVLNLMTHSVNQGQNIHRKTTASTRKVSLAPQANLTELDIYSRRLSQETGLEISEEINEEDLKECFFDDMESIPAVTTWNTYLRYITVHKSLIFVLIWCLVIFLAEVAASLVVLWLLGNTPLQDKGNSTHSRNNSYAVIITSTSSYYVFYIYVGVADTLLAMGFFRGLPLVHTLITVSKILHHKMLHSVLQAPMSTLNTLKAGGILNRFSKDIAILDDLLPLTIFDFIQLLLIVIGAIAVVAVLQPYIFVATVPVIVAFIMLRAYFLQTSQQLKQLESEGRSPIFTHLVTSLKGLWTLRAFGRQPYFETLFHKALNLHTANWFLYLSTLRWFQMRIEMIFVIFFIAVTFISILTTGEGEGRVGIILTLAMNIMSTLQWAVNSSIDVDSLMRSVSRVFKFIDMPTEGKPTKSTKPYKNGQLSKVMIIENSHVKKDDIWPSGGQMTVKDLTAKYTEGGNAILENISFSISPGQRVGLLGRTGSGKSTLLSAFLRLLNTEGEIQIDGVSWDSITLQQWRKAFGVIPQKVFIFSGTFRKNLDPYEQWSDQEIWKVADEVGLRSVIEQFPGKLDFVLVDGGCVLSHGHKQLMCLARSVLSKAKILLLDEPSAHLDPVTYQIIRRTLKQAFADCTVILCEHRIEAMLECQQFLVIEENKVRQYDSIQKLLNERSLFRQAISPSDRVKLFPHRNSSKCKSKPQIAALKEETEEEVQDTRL

For the compound `CC(C)C[C@H]1C(=O)N2CCCC[C@@H]2C(=O)N[C@H](Cc2ccccc2)COc2cnc3cccc(F)c3c2C(=O)N[C@H](C(=O)NCCc2noc(C3CC3)n2)CC(=O)N1C` [Example 563, (9S,13S,19aR,22R)-22-benzyl-N-(2-(5-cyclopropyl-1,2,4-oxadiazol-3-yl)ethyl)-6-fluoro-13-isobutyl-12-methyl-7,11,14,20-tetraoxo-7,8,9,10,11,12,13,14,17,18,19,19a,20,21,22,23-hexadecahydro-16H-pyrido[2′,11:6,7][1]oxa[4,7,10,14]tetraazacycloheptadecino[17,16-c]quinoline-9-carboxamide], the EC50 amounted to 125 nM and the Emax was determined as 330%.

For the compound `Cc1cc(CCNC(=O)[C@@H]2CC(=O)N(C)[C@@H](CC(C)C)C(=O)N(C)[C@H](COCc3ccccc3)C(=O)N[C@H](Cc3ccccc3)COc3cnc4ccccc4c3C(=O)N2)on1` [Example 564, (3S,7S,10R,13R)-13-benzyl-10-((benzyloxy)methyl)-7-isobutyl-6,9-dimethyl-N-(2-(3-methylisoxazol-5-yl)ethyl)-1,5,8,11-tetraoxo-1,2,3,4,5,6,7,8,9,10,11,12,13,14-tetradecahydro-[1]oxa[4,7,10,14]tetraazacycloheptadecino[17,16-c]quinoline-3-carboxamide], the EC50 came out at 49 nM and the Emax is 298%.

On to `COc1nc(C)cc2c1C(=O)N[C@H](C(=O)NCCc1cc(C3CC3)on1)CC(=O)N(C)[C@@H](CC(C)C)C(=O)N1CCCC[C@@H]1C(=O)N[C@H](Cc1ccccc1)CO2` [Example 565, (7S,11S,17aR,20R)-20-benzyl-N-(2-(5-cyclopropylisoxazol-3-yl)ethyl)-11-isobutyl-4-methoxy-2,10-dimethyl-5,9,12,18-tetraoxo-5,6,7,8,9,10,11,12,15,16,17,17a,18,19,20,21-hexadecahydro-14H-dipyrido[2,1-f:3′,4′-p][1]oxa[4,7,10,14]tetraazacycloheptadecine-7-carboxamide], for which the half-maximal effective concentration (EC50) is 338 nM and the maximal effect (Emax) was found to be 254%.

Take `COCC[C@@H]1C(=O)N[C@H](Cc2ccccc2)COc2cnc3ccccc3c2C(=O)N[C@H](C(=O)NCCc2cc(C)no2)CC(=O)N(C)[C@@H](CC(C)C)C(=O)N1C` [Example 566, (3S,7S,10R,13R)-13-benzyl-7-isobutyl-10-(2-methoxyethyl)-6,9-dimethyl-N-(2-(3-methylisoxazol-5-yl)ethyl)-1,5,8,11-tetraoxo-1,2,3,4,5,6,7,8,9,10,11,12,13,14-tetradecahydro-[1]oxa[4,7,10,14]tetraazacycloheptadecino[17,16-c]quinoline-3-carboxamide]: the EC50 was determined as 703 nM and the Emax was 278%.

With `COc1nc(C)cc2c1C(=O)N[C@H](C(=O)NCCc1noc(C3CC3)n1)CC(=O)N(C)[C@@H](CC(C)C)C(=O)N1CCCC[C@@H]1C(=O)N[C@H](Cc1ccccc1)CO2` [Example 567, (7S,11S,17aR,20R)-20-benzyl-N-(2-(5-cyclopropyl-1,2,4-oxadiazol-3-yl)ethyl)-11-isobutyl-4-methoxy-2,10-dimethyl-5,9,12,18-tetraoxo-5,6,7,8,9,10,11,12,15,16,17,17a,18,19,20,21-hexadecahydro-14H-dipyrido[2,1-f:3′,4′-p][1]oxa[4,7,10,14]tetraazacycloheptadecine-7-carboxamide], the concentration for a half-maximal effect (EC50) was 384 nM and the Emax turned out to be 307%.

As to `COc1nc(C)cc2c1C(=O)N[C@H](C(=O)NCCc1cc(C(F)(F)F)no1)CC(=O)N(C)[C@@H](CC(C)C)C(=O)N1CCCC[C@@H]1C(=O)N[C@H](Cc1ccccc1)CO2` [Example 568, (7S,11S,17aR,20R)-20-benzyl-11-isobutyl-4-methoxy-2,10-dimethyl-5,9,12,18-tetraoxo-N-(2-(3-(trifluoromethyl)isoxazol-5-yl)ethyl)-5,6,7,8,9,10,11,12,15,16,17,17a,18,19,20,21-hexadecahydro-14H-dipyrido[2,1-f:3′,4′-p][1]oxa[4,7,10,14]tetraazacycloheptadecine-7-carboxamide], the EC50 is 391 nM and the Emax stood at 238%.

For the compound `COc1nccc2c1C(=O)N[C@H](C(=O)NCCc1cc(C)no1)CC(=O)N(C)[C@@H](CC(C)C)C(=O)N1CCN(CC(C)C)C[C@@H]1C(=O)N[C@H](Cc1ccccc1)CO2` [Example 570, (7S,11S,20R,22aR)-20-benzyl-2,7-diisobutyl-14-methoxy-8-methyl-N-(2-(3-methylisoxazol-5-yl)ethyl)-6,9,13,22-tetraoxo-1,3,4,6,7,8,9,10,11,12,13,19,20,21,22,22a-hexadecahydro-2H-pyrazino[2,1-f]pyrido[3,4-p][1]oxa[4,7,10,14]tetraazacycloheptadecine-11-carboxamide], the EC50 is 374 nM and the maximal response (Emax) is 323%.

For `COc1nccc2c1C(=O)N[C@H](C(=O)NCCc1noc(C3CC3)n1)CC(=O)N(C)[C@@H](CC(C)C)C(=O)N(C)[C@H](CCc1nc(-c3ccccc3)no1)C(=O)N[C@H](Cc1ccccc1)CO2` [Example 571, (3R,6R,9S,13S)-3-benzyl-N-(2-(5-cyclopropyl-1,2,4-oxadiazol-3-yl)ethyl)-9-isobutyl-16-methoxy-7,10-dimethyl-5,8,11,15-tetraoxo-6-(2-(3-phenyl-1,2,4-oxadiazol-5-yl)ethyl)-2,3,4,5,6,7,8,9,10,11,12,13,14,15-tetradecahydropyrido[3,4-p][1]oxa[4,7,10,14]tetraazacycloheptadecine-13-carboxamide], the concentration for a half-maximal effect (EC50) came out at 47 nM and the maximal effect (Emax) is 347%.

Regarding `COc1cccc(CCNC(=O)[C@@H]2CC(=O)N(C)[C@@H](CC(C)C)C(=O)N(C)[C@@H](C)C(=O)N[C@H](Cc3ccccc3)COc3cnc4ccccc4c3C(=O)N2)c1` [Example 572, (3S,7S,10S,13R)-13-benzyl-7-isobutyl-N-(3-methoxyphenethyl)-6,9,10-trimethyl-1,5,8,11-tetraoxo-1,2,3,4,5,6,7,8,9,10,11,12,13,14-tetradecahydro-[1]oxa[4,7,10,14]tetraazacycloheptadecino[17,16-c]quinoline-3-carboxamide], the EC50 was found to be 701 nM and the Emax came out at 200%.

In the case of `Cc1cc(CCNC(=O)[C@@H]2CC(=O)N(C)[C@@H](CC(C)C)C(=O)N(C)[C@H](C)C(=O)N[C@H](Cc3ccccc3)COc3cnc4ccccc4c3C(=O)N2)on1` [Example 573, (3S,7S,10R,13R)-13-benzyl-7-isobutyl-6,9,10-trimethyl-N-(2-(3-methylisoxazol-5-yl)ethyl)-1,5,8,11-tetraoxo-1,2,3,4,5,6,7,8,9,10,11,12,13,14-tetradecahydro-[1]oxa[4,7,10,14]tetraazacycloheptadecino[17,16-c]quinoline-3-carboxamide], the EC50 stood at 423 nM and the Emax stood at 306%.

Consider `CC(C)C[C@H]1C(=O)N(C)[C@H](C)C(=O)N[C@H](Cc2ccccc2)COc2cnc3ccccc3c2C(=O)N[C@H](C(=O)NCCc2cc(C3CC3)no2)CC(=O)N1C` [Example 574, (3S,7S,10R,13R)-13-benzyl-N-(2-(3-cyclopropylisoxazol-5-yl)ethyl)-7-isobutyl-6,9,10-trimethyl-1,5,8,11-tetraoxo-1,2,3,4,5,6,7,8,9,10,11,12,13,14-tetradecahydro-[1]oxa[4,7,10,14]tetraazacycloheptadecino[17,16-c]quinoline-3-carboxamide], for which the EC50 stood at 308 nM and the Emax is 319%.

As for `COc1nccc2c1C(=O)N[C@H](C(=O)NCCc1noc(C3CC3)n1)CC(=O)N(C)[C@@H](CC(C)C)C(=O)N(C)[C@@H](CCc1nc(-c3ccccc3)no1)C(=O)N[C@H](Cc1ccccc1)CO2` [Example 577, (3R,6S,9S,13S)-3-benzyl-N-(2-(5-cyclopropyl-1,2,4-oxadiazol-3-yl)ethyl)-9-isobutyl-16-methoxy-7,10-dimethyl-5,8,11,15-tetraoxo-6-(2-(3-phenyl-1,2,4-oxadiazol-5-yl)ethyl)-2,3,4,5,6,7,8,9,10,11,12,13,14,15-tetradecahydropyrido[3,4-p][1]oxa[4,7,10,14]tetraazacycloheptadecine-13-carboxamide], the EC50 turned out to be 600 nM and the maximum response (Emax) was found to be 268%.

As for `Cc1cc(CCNC(=O)[C@@H]2CC(=O)N(C)[C@@H](CC(C)C)C(=O)N(C)[C@H](CCOCc3ccccc3)C(=O)N[C@H](Cc3ccccc3)COc3cnc4ccccc4c3C(=O)N2)on1` [Example 578, (3S,7S,10R,13R)-13-benzyl-10-(2-(benzyloxy)ethyl)-7-isobutyl-6,9-dimethyl-N-(2-(3-methylisoxazol-5-yl)ethyl)-1,5,8,11-tetraoxo-1,2,3,4,5,6,7,8,9,10,11,12,13,14-tetradecahydro-[1]oxa[4,7,10,14]tetraazacycloheptadecino[17,16-c]quinoline-3-carboxamide], the concentration giving a half-maximal response (EC50) came to 53 nM and the maximal response (Emax) worked out at 319%.

For `Cc1cc(CCNC(=O)[C@@H]2CC(=O)N(C)[C@@H](CC(C)C)C(=O)N(C)[C@@H](CCOCc3ccccc3)C(=O)N[C@H](Cc3ccccc3)COc3cnc4ccccc4c3C(=O)N2)on1` [Example 579, (3S,7S,10S,13R)-13-benzyl-10-(2-(benzyloxy)ethyl)-7-isobutyl-6,9-dimethyl-N-(2-(3-methylisoxazol-5-yl)ethyl)-1,5,8,11-tetraoxo-1,2,3,4,5,6,7,8,9,10,11,12,13,14-tetradecahydro-[1]oxa[4,7,10,14]tetraazacycloheptadecino[17,16-c]quinoline-3-carboxamide], the concentration for a half-maximal effect (EC50) turned out to be 399 nM and the Emax was determined as 131%.

Regarding `COc1cc(CCNC(=O)[C@@H]2CC(=O)N(C)[C@@H](CC(C)C)C(=O)N3CCC4(CC4)C[C@@H]3C(=O)N[C@H](Cc3ccccc3)COc3cc(C)nc(OC)c3C(=O)N2)on1` [Example 580, (7′S,11′S,17a′R,20′R)-20′-benzyl-11′-isobutyl-4′-methoxy-N-(2-(3-methoxyisoxazol-5-yl)ethyl)-2′,10′-dimethyl-5′,9′,12′,18′-tetraoxo-5′,6′,7′,8′,9′,10′,11′,12′,14′,15′,17′,17a′,18′,19′,20′,21′-hexadecahydrospiro[cyclopropane-1,16′-dipyrido[2,1-f:3′,4′-p][1]oxa[4,7,10,14]tetraazacycloheptadecine]-7′-carboxamide], the concentration giving a half-maximal response (EC50) was 198 nM and the Emax stood at 319%.

The EC50 is the concentration giving half of the maximal effect. The term Emax denotes the size of the effect at its maximum, as opposed to the concentration needed.

The values above are taken from patent US20240208992A1, “MACROCYCLES AS CFTR MODULATORS” (Idorsia Pharmaceuticals Ltd, priority 2021, published 2024).
